Measurements from patent publication US10808007B2, “Desacetoxytubulysin H and analogs thereof” (WILLIAM MARSH RICE UNIVERSITY, priority 2015, dated 2020).
Read-outs that look alike come from different tables or passages of the source.

Assays:
Assay type in all cases: cell-based
[1] = system: MES SA (uterine sarcoma cells); test: Cytotoxic assay (CellTiter-Glo, 72 h), MES SA
[2] = system: MES SA DX (multidrug resistant uterine sarcoma cells); test: Cytotoxic assay (CellTiter-Glo, 72 h), MES SA DX; details: Homo sapiens
[3] = system: HEK 293T (human embryonic kidney cells); test: Cytotoxic assay (CellTiter-Glo, 72 h), HEK 293T
[4] = Homo sapiens, MES-SA, 72 h, read-out: IC50 MES SA
[5] = Homo sapiens, HEK-293T, 72 h, read-out: IC50 HEK 293T
[6] = Homo sapiens, MES-SA, read-out: MES SA IC50 (nM)
[7] = Homo sapiens, HEK-293T, read-out: HEK 293T IC50 (nM)

| Compound | IC50 [1, 4] [nM] | IC50 [2] [nM] | IC50 [3, 5] [nM] | IC50 [1, 6] [nM] | IC50 [3, 7] [nM] | further results |
| --- | --- | --- | --- | --- | --- | --- |
| CC[C@H](C)[C@H](NC(=O)[C@H]1CCCCN1C)C(=O)N(C)[C@H](CCc1nc(C(=O)N[C@@H](Cc2ccccc2)C[C@H](C)C(=O)OC)cs1)C(C)C [PTb-D42, Methyl(2S,4R)-4-(2-((R)-3-((2S,3S)—N,3-dimethyl-2-((R)-1-methylpiperidine-2-carboxamido)pentanamido)-4-methylpentyl)thiazole-4-carboxamido)-2-methyl-5-phenylpentanoate] | > 1000 | > 1000 | > 1000 |  |  |  |
| CC[C@H](C)[C@H](NC(=O)[C@H]1CCCCN1C)C(=O)N(C)[C@H](CCc1nc(C(=O)N[C@@H](Cc2ccccc2)C[C@H](C)C(=O)O)cs1)C(C)C [PTb-D43, pretubulysin D, reference compound] | 409 | > 1000 | 109 |  |  |  |
| CCCCN1CCCC[C@@H]1C(=O)N[C@H](C(=O)N(C)[C@H](CCc1nc(C(=O)N[C@@H](Cc2ccccc2)C[C@H](C)C(=O)OC)cs1)C(C)C)[C@@H](C)CC [PTb-D49, Methyl(2S,4R)-4-(2-((R)-3-((2S,3S)-2-((R)-1-butylpiperidine-2-carboxamido)-N,3-dimethylpentanamido)-4-methylpentyl)thiazole-4-carboxamido)-2-methyl-5-phenylpentanoate] |  |  |  | > 100 | > 100 |  |
| COC(=O)[C@@H](C)C[C@H](Cc1ccccc1)NC(=O)c1csc(CC[C@H](C(C)C)N(C)C(=O)[C@@H](NC(=O)[C@H]2CCCCN2C)C(C)C)n1 [PTb-D50, Methyl(2S,4R)-4-(2-((R)-3-((S)—N,3-dimethyl-2-((R)-1-methylpiperidine-2-carboxamido)butanamido)-4-methylpentyl)thiazole-4-carboxamido)-2-methyl-5-phenylpentanoate] |  |  |  | > 100 | > 100 |  |
| CCCCN1CCCC[C@@H]1C(=O)N[C@H](C(=O)N(C)[C@H](CCc1nc(C(=O)N[C@@H](Cc2ccccc2)C[C@H](C)C(=O)OC)cs1)C(C)C)C(C)C [PTb-D51, Methyl(2S,4R)-4-(2-((R)-3-((S)-2-((R)-1-butylpiperidine-2-carboxamido)-N,3-dimethylbutanamido)-4-methylpentyl)thiazole-4-carboxamido)-2-methyl-5-phenylpentanoate] |  |  |  | > 100 | > 100 |  |
| CC[C@H](C)[C@H](NC(=O)[C@H]1CCCCN1C)C(=O)N(C)[C@H](C[C@@H](OC(C)=O)c1nc(C(=O)NC23C4C5C2C2C3C4C52C(=O)OC)cs1)C(C)C (stereo partly drawn) [Tb1l] |  |  |  |  |  | IC50 ([1]; MES SA, read-out: IC50 MES SA): 0.84 nM; IC50 ([3]; HEK 293T, read-out: IC50 HEK 293T): 0.26 nM |
| COC(=O)[C@H](Cc1ccccc1)NC(=O)c1csc([C@@H](C[C@H](C(C)C)N(C)C(=O)[C@@H](NC(=O)[C@H]2CCCCN2C)C2CC2)OC(C)=O)n1 [Tb24, Methyl(2-((1R,3R)-1-acetoxy-3-((S)-2-cyclopropyl-N-methyl-2-((R)-1-methylpiperidine-2-carboxam-ido)acetamido)-4-methylpentyl)thiazole-4-carbonyl)-L-phenylalaninate] | 13.1 | > 100 | 9.69 |  |  |  |
| COC(=O)[C@@H](C)C[C@H](Cc1ccccc1)NC(=O)c1csc([C@@H](C[C@H](C(C)C)N(C)C(=O)[C@@H](NC(=O)[C@H]2CCCN2C)C2CC2)OC(C)=O)n1 [Tb26, (2S,4R)-Methyl 4-(2-((1R,3R)-1-acetoxy-3-((S)-2-cyclopropyl-N-methyl-2-((R)-1-methylpyrrolidine-2-carboxamido)acetamido)-4-methylpentyl)thiazole-4-carboxamido)-2methyl-5-phenylpentanoate] | 0.2 | > 100 | 0.12 |  |  | IC50 ([1]; Homo sapiens, MES-SA, read-out: IC50 MES SA): 0.2 nM; IC50 ([3]; Homo sapiens, HEK-293T, read-out: IC50 HEK 293T): 0.12 nM |
| COC(=O)[C@@H](C)C[C@H](Cc1ccccc1)NC(=O)c1csc([C@@H](C[C@H](C(C)C)N(C)C(=O)C2(NC(=O)[C@H]3CCCCN3C)CC2)OC(C)=O)n1 [Tb27, (2S,4R)-Methyl 4-(2-((1R,3R)-1-acetoxy-4-methyl-3-(N-methyl-1-((R)-1-methylpiperidine-2-carboxamido)cyclopropanecarboxamido)pentyl)thiazole-4-carboxamido)-2-methyl-5-phenylpentanoate] | 2.46 | > 100 | 1.96 |  |  |  |
| COC(=O)[C@@H](C)C[C@H](Cc1ccccc1)NC(=O)c1csc([C@@H](C[C@H](C(C)C)N(C)C(=O)C2(NC(=O)[C@H]3CCCCN3C)CCC2)OC(C)=O)n1 [Tb28, (2S,4R)-Methyl 4-(2-((1R,3R)-1-acetoxy-4-methyl-3-(N-methyl-1-((R)-1-methylpiperidine-2-carboxamido)cyclobutanecarboxamido)pentyl)thiazole-4-carboxamido)-2-methyl-5-phenylpentanoate] | 1.13 | 81.7 | 0.69 |  |  |  |
| COC(=O)[C@@H](C)C[C@H](Cc1ccccc1)NC(=O)c1csc([C@@H](C[C@H](C(C)C)N(C)C(=O)C2(NC(=O)[C@H]3CCCCN3C)CCCC2)OC(C)=O)n1 [Tb-52, Methyl (2S,4R)-4-(2-((1R,3R)-1-acetoxy-4-methyl-3-(N-methyl-1-((R)-1-methylpiperidine-2-carboxa-mido)cyclopentane-1-carboxamido)pentyl)thiazole-4-carboxamido)-2-methyl-5-phenylpentanoate] |  |  |  | 7.18 | 5.78 |  |
| CC[C@H](C)[C@H](NC(=O)[C@H]1CCCCN1C)C(=O)N[C@H](C[C@@H](OC(C)=O)c1nc(C(=O)N[C@@H](Cc2ccccc2)C[C@H](C)C(=O)OC)cs1)C(C)C [Tb-53, (2S,4R)-Methyl 4-(2-((1R,3R)-1-acetoxy-4-methyl-3-((2S,3S)-3-methyl-2-((R)-1-methylpiperidine-2-carboxamido)pentanamido)pentyl)thiazole-4-carboxamido)-2-methyl-5-phenyl pentanoate] |  |  |  | 0.92 | 0.56 |  |
| CC[C@H](C)[C@H](NC(=O)[C@H]1CCCCN1C)C(=O)N[C@H](C[C@@H](OC(C)=O)c1nc(C(=O)N[C@@H](Cc2ccccc2)C[C@H](C)C(=O)O)cs1)C(C)C [Tb-54, (2S,4R)-4-(2-((1R,3R)-1-Acetoxy-4-methyl-3-((2S,3S)-3-methyl-2-((R)-1-methylpiperidine-2-carboxamido)pentanamido)pentyl)thiazole-4-carboxamido)-2-methyl-5-phenylpentanoic Acid] |  |  |  |  |  | IC50 ([1]; Homo sapiens, MES SA, Table 3, read-out: MES SA IC50): 6.21 nM; IC50 ([3]; Homo sapiens, HEK 293T, Table 3, read-out: HEK 293T IC50): 0.73 nM |
| COC(=O)C12CC(NC(=O)c3csc([C@@H](C[C@H](C(C)C)N(C)C(=O)[C@@H](NC(=O)[C@H]4CCCCN4C)C(C)C)OC(C)=O)n3)(C1)C2 [Tb-55, Methyl 3-(2-((1R,3R)-1-acetoxy-3-((S)—N,3-dimethyl-2-((R)-1-methylpiperidine-2-carboxamido)butanamido)-4-methylpentyl)thiazole-4-carboxamido)bicyclo[1.1.1]pentane-1-carboxylate] |  |  |  | 0.93 | 0.35 |  |
| COC(=O)CC12CC(NC(=O)c3csc([C@@H](C[C@H](C(C)C)N(C)C(=O)[C@@H](NC(=O)[C@H]4CCCCN4C)C(C)C)OC(C)=O)n3)(C1)C2 [Tb-56, Methyl 2-(3-(2-((1R,3R)-1-acetoxy-3-((S)—N,3-dimethyl-2-((R)-1-methylpiperidine-2-carboxamido)butanamido)-4-methylpentyl)thiazole-4-carboxamido)bicyclo[1.1.1]pentan-1-yl)] |  |  |  | ~2.73 | 1.79 |  |
| COC(=O)[C@@H](C)C[C@H](Cc1ccc(F)cc1)NC(=O)c1csc([C@@H](C[C@H](C(C)C)N(C)C(=O)[C@@H](NC(=O)[C@H]2CCCCN2C)C2CC2)OC(C)=O)n1 [Tb-57, Methyl (2S,4R)-4-(2-((1R,3R)-1-acetoxy-3-((S)-2-cyclopropyl-N-methyl-2-((R)-1-methylpiperidine-2-carboxamido)acetamido)-4-methylpentyl)thiazole-4-carboxamido)-5-(4-fluorophenyl)-2-methylpentanoate] |  |  |  | ~89.3 | ~105 |  |
| COC(=O)[C@H]1CC[C@H](NC(=O)c2csc([C@@H](C[C@H](C(C)C)N(C)C(=O)[C@@H](NC(=O)[C@H]3CCCCN3C)C(C)C)OC(C)=O)n2)CC1 [Tb-58, Methyl (1R,4r)-4-(2-((1R,3R)-1-acetoxy-3-((S)—N,3-dimethyl-2-((R)-1-methylpiperidine-2-carboxamido)butanamido)-4-methylpentyl)thiazole-4-carboxamido)cyclohexane-1-carboxylate] |  |  |  | 6.16 | 3.83 |  |
| CC(=O)O[C@H](C[C@H](C(C)C)N(C)C(=O)[C@@H](NC(=O)[C@H]1CCCCN1C)C(C)C)c1nc(C(=O)N[C@H]2CC[C@H](C(=O)O)CC2)cs1 [Tb-59, (1R,4r)-4-(2-((1R,3R)-1-Acetoxy-3-((S)—N,3-dimethyl-2-((R)-1-methylpiperidine-2-carboxamido)butanamido)-4-methylpentyl)thiazole-4-carboxamido)cyclohexane-1-carboxylic Acid] |  |  |  | > 100 | > 100 |  |
| CCCCN1CCCC[C@@H]1C(=O)N[C@H](C(=O)N(C)[C@H](C[C@@H](OC(C)=O)c1nc(C(=O)N[C@H]2CC[C@H](C(=O)OC)CC2)cs1)C(C)C)C(C)C [Tb-60, Methyl (1R,4r)-4-(2-((1R,3R)-1-acetoxy-3-((S)-2-((R)-1-butylpiperidine-2-carboxamido)-N,3-dimethylbutanamido)-4-methylpentyl)thiazole-4-carboxamido)cyclohexane-1-carboxylate] |  |  |  | > 100 | > 100 |  |
| CCCCN1CCCC[C@@H]1C(=O)N[C@H](C(=O)N(C)[C@H](C[C@@H](OC(C)=O)c1nc(C(=O)N[C@H]2CC[C@H](C(=O)O)CC2)cs1)C(C)C)C(C)C [Tb-61] |  |  |  | > 100 | > 100 |  |
